Drawing on patent EP1738740A2, “Use of benzyl-1,3-thiazolidine-2,4-dione compounds for favouring and/or inducing and/or stimulating the pigmentation of keratinic materials and/or for limiting their depigmentation and/or their bleaching” (L'Oreal, priority 2005, dated 2007), this text covers IC50 for 1 compound.

For orientation: IC50 means the point on the concentration scale where inhibition reaches its midpoint.

The assay concerns the target T1, 15-PGDH de type 1 (Homo sapiens, UniProt P15428).
T1 sequence (P15428 1-266): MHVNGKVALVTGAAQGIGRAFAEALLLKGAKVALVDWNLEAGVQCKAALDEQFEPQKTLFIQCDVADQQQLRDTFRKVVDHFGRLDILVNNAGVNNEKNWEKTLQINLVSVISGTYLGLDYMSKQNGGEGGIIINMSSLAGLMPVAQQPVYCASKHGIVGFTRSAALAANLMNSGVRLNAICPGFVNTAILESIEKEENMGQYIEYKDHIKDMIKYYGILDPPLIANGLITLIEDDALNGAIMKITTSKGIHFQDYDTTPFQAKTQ
In words: Test on 15-PGDH type 1: spectrophotometric enzyme inhibition, NADH formation at 340 nm with PGE2 and β-NAD. Format: biochemical. The note with it: concentration reducing the enzymatic activity of 15-PGDH by 50%; Tris 100 mM pH 7,4, 37°C, 50 µM Prostaglandine E2, 1,5 mM β-NAD. Here is the method:
L'enzyme 15-PGDH est obtenue comme décrit dans la demande FR 02/05067 déposée au nom de L'Oréal, en suspension dans un milieu adapté à une concentration de 0,3 mg/mL puis bloquée à - 80°C. Pour les besoins du test, cette suspension est décongelée et stockée dans de la glace.
Par ailleurs on prépare un tampon Tris 100 mM, pH = 7,4, contenant 0,1 mM de dithiothréitol (D5545, Sigma-Aldrich, L'isle D'Abeau Chesne, BP 701, 38297, Saint Quentin Fallavier), 1,5 mM de β-NAD (N6522, Sigma-Aldrich, L'isle D'Abeau Chesne, BP 701, 38297, Saint Quentin Fallavier), 50 µM de Prostaglandine E2 (P4172, Sigma-Aldrich, L'isle D'Abeau Chesne, BP 701, 38297, Saint Quentin Fallavier).
Dans la cuve d'un spectrophotomètre (Perkin-Elmer, Lambda 2) thermostaté à 37°C, dont la longueur d'onde de mesure est réglée à 340 nm, sont introduits 0,965 ml de ce tampon (préalablement porté à 37°C). 0,035 mL de suspension enzymatique à 37°C sont introduits dans la cuve concomitamment à l'enregistrement (correspondant à une augmentation de la densité optique à 340 nm). La vitesse maximale de réaction est relevée. […]

On to `O=C1NC(=O)C(Cc2ccccc2Oc2ccc(Cl)cc2)S1` (stereo not shown) [compound 1], for which 2200 nM corresponded to half-maximal inhibition (IC50).
